Each structure is given as a SMILES string. Where a name gives a salt, the structure may show the parent alone.

Usually melting point stands for the temperature of the solid-liquid transition.

As for `CCOc1cc2c(cc1OC)C(c1ccc(-n3cccn3)nc1)=N[C@@H]1CC[C@@H](O)C[C@H]21` (as salt: fumarate) [compound 3, (2R,4aR,10bR)-9-Ethoxy-8-methoxy-6-(6-pyrazol-1-yl-pyridin-3-yl)-1,2,3,4,4a, 10b-hexahydro-phenanthridin-2-ol], the melting point was 170 °C.
On to `CCOc1cc2c(cc1OC)C(c1ccc(=O)n(C)c1)=N[C@@H]1CC[C@@H](O)C[C@H]21` (as salt: fumarate) [compound 9, 5-((2R,4aR,10bR)-9-Ethoxy-2-hydroxy-8-methoxy-1,2,3,4,4a, 10b-hexahydro-phenanthridin-6-yl)-1-methyl-1H-pyridin-2-one], for which the melting point stood at 156 °C.
Compound `CCOc1cc2c(cc1OC)C(c1ccc(OC)nc1)=N[C@@H]1CC[C@@H](O)C[C@H]21` (as salt: fumarate) [compound 10, (2R,4aR,10bR)-9-Ethoxy-8-methoxy-6-(6-methoxy-pyridin-3-yl)-1,2,3,4,4a, 10b-hexahydro-phenanthridin-2-ol] yielded a melting point of 173 °C.
The value for `CCOc1cc2c(cc1OC)C(c1cnc(N(C)C)nc1OC)=N[C@@H]1CC[C@@H](O)C[C@H]21` (as salt: fumarate) [compound 11, (2R,4aR,10bR)-6-(2-Dimethylamino-4-methoxy-pyrimidin-5-yl)-9-ethoxy-8-methoxy-1,2,3,4,4a, 10b-hexahydro-phenanthridin-2-ol] was 123 °C; that for `CCOc1cc2c(cc1OC)C(c1cnc(OC)cc1OC)=N[C@@H]1CC[C@@H](O)C[C@H]21` (as salt: fumarate) [compound 12, (2R,4aR,10bR)-6-(4,6-Dimethoxy-pyridin-3-yl)-9-ethoxy-8-methoxy-1,2,3,4,4a, 10b-hexahydro-phenanthridin-2-ol] was 194 °C; that for `CCOc1cc2c(cc1OC)C(c1cnc(N(C)C)nc1)=N[C@@H]1CC[C@@H](O)C[C@H]21` (as salt: fumarate) [compound 13, (2R,4aR,10bR)-6-(2-Dimethylamino-pyrimidin-5-yl)-9-ethoxy-8-methoxy-1,2,3,4,4a, 10b-hexahydro-phenanthridin-2-ol] was 210 °C.
Next, `CCOc1cc2c(cc1OC)C(c1ccc(OC)nc1OC)=N[C@@H]1CC[C@@H](O)C[C@H]21` (as salt: hydrobromid) [compound 8, (2R,4aR,10bR)-6-(2,6-Dimethoxy-pyridin-3-yl)-9-ethoxy-8-methoxy-1,2,3,4,4a, 10b-hexahydro-phenanthridin-2-ol]: 163 °C; `CCOc1cc2c(cc1OC)C(c1ccc(OC)nc1OC)=N[C@@H]1CC[C@@H](O)C[C@H]21` (as salt: hydrochloride) [compound 8, (2R,4aR,10bR)-6-(2,6-Dimethoxy-pyridin-3-yl)-9-ethoxy-8-methoxy-1,2,3,4,4a, 10b-hexahydro-phenanthridin-2-ol]: 164 °C.
With `CCOc1cc2c(cc1OC)C(c1ccc(OC)nc1OC)=N[C@@H]1CC[C@@H](O)C[C@H]21` (as salt: mesylate) [compound 8, (2R,4aR,10bR)-6-(2,6-Dimethoxy-pyridin-3-yl)-9-ethoxy-8-methoxy-1,2,3,4,4a, 10b-hexahydro-phenanthridin-2-ol], the melting point was found to be 193 °C.
With `CCOc1cc2c(cc1OC)C(c1ccc(=O)n(C)c1)=N[C@@H]1CC[C@@H](O)C[C@H]21` (as salt: tartrate) [compound 9, 5-((2R,4aR,10bR)-9-Ethoxy-2-hydroxy-8-methoxy-1,2,3,4,4a, 10b-hexahydro-phenanthridin-6-yl)-1-methyl-1H-pyridin-2-one], the melting point was found to be 205 °C.
The value for `CCOc1cc2c(cc1OC)C(c1cnc(N(C)C)nc1OC)=N[C@@H]1CC[C@@H](O)C[C@H]21` (as salt: tartrate) [compound 11, (2R,4aR,10bR)-6-(2-Dimethylamino-4-methoxy-pyrimidin-5-yl)-9-ethoxy-8-methoxy-1,2,3,4,4a, 10b-hexahydro-phenanthridin-2-ol] was 249 °C.
Next, `CCOc1cc2c(cc1OC)C(c1cnc(N(C)C)nc1)=N[C@@H]1CC[C@@H](O)C[C@H]21` (as salt: tartrate) [compound 13, (2R,4aR,10bR)-6-(2-Dimethylamino-pyrimidin-5-yl)-9-ethoxy-8-methoxy-1,2,3,4,4a, 10b-hexahydro-phenanthridin-2-ol]: 206 °C.
The value for `CCOc1cc2c(cc1OC)C(c1ccc(OC)nc1OC)=N[C@@H]1CC[C@@H](O)C[C@H]21` (as salt: tosylate) [compound 8, (2R,4aR,10bR)-6-(2,6-Dimethoxy-pyridin-3-yl)-9-ethoxy-8-methoxy-1,2,3,4,4a, 10b-hexahydro-phenanthridin-2-ol] was 218 °C; that for `CCOc1cc2c(cc1OC)C(c1cnc(OC)nc1)=N[C@@H]1CC[C@@H](O)C[C@H]21` [compound 4, (2R,4aR,10bR)-9-Ethoxy-8-methoxy-6-(2-methoxy-pyrimidin-5-yl)-1,2,3,4,4a, 10b-hexahydro-phenanthridin-2-ol] was 124 °C; that for `CCOc1cc2c(cc1OC)C(c1ccc(=O)n(C)c1)=N[C@@H]1CC[C@@H](O)C[C@H]21` [compound 9, 5-((2R,4aR,10bR)-9-Ethoxy-2-hydroxy-8-methoxy-1,2,3,4,4a, 10b-hexahydro-phenanthridin-6-yl)-1-methyl-1H-pyridin-2-one] was 147 °C.
`CCOc1cc2c(cc1OC)C(c1cnc(N(C)C)nc1OC)=N[C@@H]1CC[C@@H](O)C[C@H]21` [compound 11, (2R,4aR,10bR)-6-(2-Dimethylamino-4-methoxy-pyrimidin-5-yl)-9-ethoxy-8-methoxy-1,2,3,4,4a, 10b-hexahydro-phenanthridin-2-ol] displayed a melting point of 124 °C.
The value for `CCOc1cc2c(cc1OC)C(c1cnc(N(C)C)nc1)=N[C@@H]1CC[C@@H](O)C[C@H]21` [compound 13, (2R,4aR,10bR)-6-(2-Dimethylamino-pyrimidin-5-yl)-9-ethoxy-8-methoxy-1,2,3,4,4a, 10b-hexahydro-phenanthridin-2-ol] was 112 °C.
